# Reference: patent US8648066B2 (Exelixis, Inc., priority 2009, dated 2014)
# Target: mTOR/GbL/Raptor (mTORC1) (Homo sapiens, UniProt P42345)
# Assay: mTOR/GbL/Raptor (mTORC1) ELISA assay
# Type: biochemical
# Settings: phosphorylation of 4E-BP1; 0.2 nM mTORC1, 10 μM ATP; read-out: IC50 in this assay (mTORC1 ELISA)
# Procedure, shortened: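 Human mTORC1 (0.2 nM) phosphorylated 50 nM His-tagged 4E-BP1 with 10 µM ATP in HEPES pH 7.2 containing 10 mM MnCl2, 120 min at ambient temperature. Substrate was captured on Ni-chelate plates; phospho-4E-BP1 was detected by primary antibody and HRP secondary with luminescence.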
row,SMILES,IC50
1,"COc1cc2c(N3CCOc4ccc(-c5cnc6nc(N)[nH]c6c5)cc4C3)ncnc2cc1Br [Example 184, 6-{4-[7-bromo-6-(methyloxy)quinazolin-4-yl]-2,3,4,5-tetrahydro-1,4-benzoxazepin-7-yl}-1H-imidazo[4,5-b]pyridin-2-amine]",250 to 1000 nM
2,"CC1(C)CCc2ncnc(N3CCOc4ccc(-c5cnc(N)c(S(=O)(=O)N6CCOCC6)c5)cc4C3)c2C1 [Example 513, 5-[4-(6,6-dimethyl-5,6,7,8-tetrahydroquinazolin-4-yl)-2,3,4,5-tetrahydro-1,4-benzoxazepin-7-yl]-3-(morpholin-4-ylsulfonyl)pyridin-2-amine]",50 to 250 nM
3,"Cc1ncnc(N2CCOc3ccc(-c4cnc5nc(N)[nH]c5c4)cc3C2)c1Cc1ccc(F)cc1 [Example 176, 6-(4-{5-[(4-fluorophenyl)methyl]-6-methylpyrimidin-4-yl}-2,3,4,5-tetrahydro-1,4-benzoxazepin-7-yl)-1H-imidazo[4,5-b]pyridin-2-amine]",≤ 10 nM
4,"Cc1nc(CN(C)C)nc(N2CCOc3ccc(-c4cnc5sc(N)nc5c4)cc3C2)c1Br [Example 673, 6-(4-{5-bromo-2-[(dimethylamino)methyl]-6-methylpyrimidin-4-yl}-2,3,4,5-tetrahydro-1,4-benzoxazepin-7-yl)[1,3]thiazolo[5,4-b]pyridin-2-amine]",250 to 1000 nM
5,"Cc1nc2ccc(-c3ccc4c(c3)CN(c3ncnc5ccc(O)cc35)CCO4)cc2[nH]1 [Example 158, 4-[7-(2-methyl-1H-benzimidazol-6-yl)-2,3-dihydro-1,4-benzoxazepin-4(5H)-yl]quinazolin-6-ol]",10 to 50 nM
6,"CC1(C)CCc2ncnc(N3CCOc4ccc(-c5cnc(N)c(S(=O)(=O)NC[C@H]6CCNC6)c5)cc4C3)c2C1 [Example 391, 2-amino-5-[4-(6,6-dimethyl-5,6,7,8-tetrahydroquinazolin-4-yl)-2,3,4,5-tetrahydro-1,4-benzoxazepin-7-yl]-N-[(3S)-pyrrolidin-3-ylmethyl]pyridine-3-sulfonamide]",10 to 50 nM
7,"Cc1nc2ccc(-c3ccc4c(c3)CN(c3ncnc5ccc(OCC#N)cc35)CCO4)cc2[nH]1 [Example 160, ({4-[7-(2-methyl-1H-benzimidazol-6-yl)-2,3-dihydro-1,4-benzoxazepin-4(5H)-yl]quinazolin-6-yl}oxy)acetonitrile]",250 to 1000 nM
8,"Cc1cccc(Cc2c(C)ncnc2N2CCOc3ccc(-c4ccc5nc(C)[nH]c5c4)cc3C2)c1 [Example 82, 7-(2-methyl-1H-benzimidazol-6-yl)-4-{6-methyl-5-[(3-methylphenyl)methyl]pyrimidin-4-yl}-2,3,4,5-tetrahydro-1,4-benzoxazepine]",10 to 50 nM
9,"CCCNC(=O)c1ccc(-c2ccc3c(c2)CN(c2ccnc4ccccc24)CCO3)cc1 [Example 244, N-propyl-4-(4-quinolin-4-yl-2,3,4,5-tetrahydro-1,4-benzoxazepin-7-yl)benzamide]",50 to 250 nM
10,"CCN1CCc2c(ncnc2N2CCOc3ccc(-c4ccc5nc(C)[nH]c5c4)cc3C2)C1 [Example 211, 4-(7-ethyl-5,6,7,8-tetrahydropyrido[3,4-d]pyrimidin-4-yl)-7-(2-methyl-1H-benzimidazol-6-yl)-2,3,4,5-tetrahydro-1,4-benzoxazepine]",1000 to 2000 nM
11,"COc1ccc2ncnc(N3CCOc4ccc(-c5cnc6nc(N)[nH]c6c5)cc4C3)c2c1 [Example 182, 6-{4-[6-(methyloxy)quinazolin-4-yl]-2,3,4,5-tetrahydro-1,4-benzoxazepin-7-yl}-1H-imidazo[4,5-b]pyridin-2-amine]",10 to 50 nM
12,"COc1ccc2c(N3CCOc4ccc(-c5cnc6[nH]cnc6c5)cc4C3)nc(CN(C)C)nc2c1 [Example 691, 1-{4-[7-(3H-imidazo[4,5-b]pyridin-6-yl)-2,3-dihydro-1,4-benzoxazepin-4(5H)-yl]-7-(methyloxy)quinazolin-2-yl}-N,N-dimethylmethanamine]",1000 to 2000 nM
13,"COc1ccc2c(N3CCOc4ccc(-c5cnc(N)nc5)cc4C3)nc(C)nc2c1 [Example 286, 5-{4-[2-methyl-7-(methyloxy)quinazolin-4-yl]-2,3,4,5-tetrahydro-1,4-benzoxazepin-7-yl}pyrimidin-2-amine]",≥ 2000 nM
14,"COc1ccc2c(N3CCOc4ccc(-c5ccc(NC(C)=O)cc5)cc4C3)nc(C)nc2c1 [Example 609, N-(4-{4-[2-methyl-7-(methyloxy)quinazolin-4-yl]-2,3,4,5-tetrahydro-1,4-benzoxazepin-7-yl}phenyl)acetamide]",≥ 2000 nM

# Results, then the compound that gave them:
row,IC50,SMILES
1,≤ 10 nM,"Cc1nc2ncc(-c3ccc4c(c3)CN(c3nc(CNC5CCCC5)nc5c3CC(C)(C)CC5)CCO4)cc2[nH]1 [Example 598, N-({6,6-dimethyl-4-[7-(2-methyl-1H-imidazo[4,5-b]pyridin-6-yl)-2,3-dihydro-1,4-benzoxazepin-4(5H)-yl]-5,6,7,8-tetrahydroquinazolin-2-yl}methyl)cyclopentanamine]"
2,50 to 250 nM,"COc1ccc(-c2ccc3c(c2)CN(c2nc(CN(C)C)nc4c2CC(C)(C)CC4)CCO3)cc1C(C)=O [Example 650, 1-[5-(4-{2-[(dimethylamino)methyl]-6,6-dimethyl-5,6,7,8-tetrahydroquinazolin-4-yl}-2,3,4,5-tetrahydro-1,4-benzoxazepin-7-yl)-2-(methyloxy)phenyl]ethanone]"
3,10 to 50 nM,"Cc1nc2cc(-c3ccc4c(c3)CN(c3nc(CN(C)C)nc(C)c3C(C)C)CCO4)cnc2[nH]1 [Example 614, N,N-dimethyl-1-{4-methyl-5-(1-methylethyl)-6-[7-(2-methyl-3H-imidazo[4,5-b]pyridin-6-yl)-2,3-dihydro-1,4-benzoxazepin-4(5H)-yl]pyrimidin-2-yl}methanamine]"
4,≤ 10 nM,"CC1(C)CCc2ncnc(N3CCOc4ccc(-c5ccc6nc(N)[nH]c6c5)cc4C3)c2C1 [Example 236, 6-[4-(6,6-dimethyl-5,6,7,8-tetrahydroquinazolin-4-yl)-2,3,4,5-tetrahydro-1,4-benzoxazepin-7-yl]-1H-benzimidazol-2-amine]"
5,250 to 1000 nM,"CC1(C)CCc2ncnc(N3CCOc4ccc(-c5cncc(S(N)(=O)=O)c5)cc4C3)c2C1 [Example 522, 5-[4-(6,6-dimethyl-5,6,7,8-tetrahydroquinazolin-4-yl)-2,3,4,5-tetrahydro-1,4-benzoxazepin-7-yl]pyridin-3-sulfonamide]"
6,50 to 250 nM,"CN(C)Cc1nc2c(c(N3CCOc4ccc(-c5cnc(Cl)c(NS(C)(=O)=O)c5)cc4C3)n1)CC(C)(C)CC2 [Example 616, N-[2-chloro-5-(4-{2-[(dimethylamino)methyl]-6,6-dimethyl-5,6,7,8-tetrahydroquinazolin-4-yl}-2,3,4,5-tetrahydro-1,4-benzoxazepin-7-yl)puyridin-3-yl]methanesulfonamide]"
7,50 to 250 nM,"Cc1nc2ncc(-c3ccc4c(c3)CN(c3nc(CN(C)C)nc(C)c3CC3CC3)CCO4)cc2[nH]1 [Example 346, 1-{5-(cyclopropylmethyl)-4-methyl-6-[7-(2-methyl-1H-imidazo[4,5-b]pyridin-6-yl)-2,3-dihydro-1,4-benzoxazepin-4(5H)-yl]pyrimidin-2-yl}-N,N-dimethylmethanamine]"
8,10 to 50 nM,"CNC1CN(S(=O)(=O)c2cc(-c3ccc4c(c3)CN(c3ncnc5c3CC(C)(C)CC5)CCO4)cnc2N)C1 [Example 519, 5-[4-(6,6-dimethyl-5,6,7,8-tetrahydroquinazolin-4-yl)-2,3,4,5-tetrahydro-1,4-benzoxazepin-7-yl]-3-{[3-(methylamino)azetidin-1-yl]sulfonyl}pyridin-2-amine]"
9,10 to 50 nM,"CC[C@@H](C)NCc1nc2c(c(N3CCOc4ccc(-c5cnc6nc(C)[nH]c6c5)cc4C3)n1)CC(C)(C)CC2 [Example 300, (2R)-N-({6,6-dimethyl-4-[7-(2-methyl-1H-imidazo[4,5-b]pyridin-6-yl)-2,3-dihydro-1,4-benzoxazepin-4(5H)-yl]-5,6,7,8-tetrahydroquinazolin-2-yl}methyl)butan-2-amine]"
10,10 to 50 nM,"CC1(C)CCc2ncnc(N3CCOc4ccc(-c5cnc(N)c(S(=O)(=O)NC[C@@H]6CCNC6)c5)cc4C3)c2C1 [Example 388, 2-amino-5-[4-(6,6-dimethyl-5,6,7,8-tetrahydroquinazolin-4-yl)-2,3,4,5-tetrahydro-1,4-benzoxazepin-7-yl]-N-[(3R)-pyrrolidin-3-ylmethyl]pyridine-3-sulfonamide]"
11,10 to 50 nM,"Cc1nc2ncc(-c3ccc4c(c3)CN(c3nc(CNC(C)(C)C)nc5c3CC(C)(C)CC5)CCO4)cc2[nH]1 [Example 595, N-({6,6-dimethyl-4-[7-(2-methyl-1H-imidazo[4,5-b]pyridin-6-yl)-2,3-dihydro-1,4-benzoxazepin-4(5H)-yl]-5,6,7,8-tetrahydroquinazolin-2-yl}methyl)-2-methylpropan-2-amine]"
12,50 to 250 nM,"CC1(C)CCc2ncnc(N3CCOc4ccc(-c5cnc6[nH]ncc6c5)cc4C3)c2C1 [Example 263, 4-(6,6-dimethyl-5,6,7,8-tetrahydroquinazolin-4-yl)-7-(1H-pyrazolo[3,4-b]pyridin-5-yl)-2,3,4,5-tetrahydro-1,4-benzoxazepine]"
13,10 to 50 nM,CN(C)Cc1nc2c(c(N3CCOc4ccc(-c5ccc6[nH]c(C(F)F)nc6c5)cc4C3)n1)CC(C)(C)CC2 [Example 320]
14,50 to 250 nM,"CCN(Cc1nc2c(c(N3CCOc4ccc(-c5cnc6nc(C)[nH]c6c5)cc4C3)n1)CC(C)(C)CC2)C(C)C [Example 603, N-({6,6-dimethyl-4-[7-(2-methyl-1H-imidazo[4,5-b]pyridin-6-yl)-2,3-dihydro-1,4-benzoxazepin-4(5H)-yl]-5,6,7,8-tetrahydroquinazolin-2-yl}methyl)-N-ethylpropan-2-amine]"
15,250 to 1000 nM,"Cc1nc2ncc(-c3ccc4c(c3)CN(c3ncnc(N5CCC5)c3C)CCO4)cc2[nH]1 [Example 480, 4-(6-azetidin-1-yl-5-methylpyrimidin-4-yl)-7-(2-methyl-1H-imidazo[4,5-b]pyridin-6-yl)-2,3,4,5-tetrahydro-1,4-benzoxazepine]"
